{"source": "patent US10376520B2", "about": "“Methods for the treatment of cardiovascular disorders” (Galapagos NV, priority 2015, dated 2019)", "test_system": "RA patients", "assay": "Atherogenic index, Study 1 (RA patients, add-on to MTX)", "assay_type": "in vivo, human", "settings": "for Atherogenic index Mean percentage CFB - 12 weeks results / Atherogenic index Median CFB - 12 weeks results / Atherogenic index Mean CFB: 2 × 100 mg (b.i.d. group); for atherogenic index variation, decrease compared to pre-treatment baseline: Study 1, after 12 weeks treatment", "procedure": "As used herein, the term ‘atherogenic index’ refers to\nDouble-blind, placebo-controlled add on study in subjects with moderately to severely active RA who have an inadequate response to methotrexate (MTX) (oral or parenteral).\nCompound 1 (dosed as a [Compound 1:HCl:3H2O]) is dosed for twelve weeks once daily (q.d.) (50 mg, 100 mg or 200 mg) or twice daily (b.i.d.) (25 mg, 50 mg or 100 mg); or placebo.\nAt Week 12, the subjects on placebo who have not achieved 20% improvement in swollen joint count (SJC66) and tender joint count (TJC68) are re-randomized automatically to receive Compound 1 (dosed as a [Compound 1:HCl:3H2O]) either at 100 mg q.d. or 50 mg b.i.d. doses in a blinded fashion; subjects on 50 mg q.d. who have not achieved 20% improvement in SJC66 and TJC68 will be assigned to 100 mg q.d. and subjects on 25 mg b.i.d. that have not achieved a 20% improvement in SJC66 and TJC68 will be assigned to 50 mg b.i.d. Subjects who switch treatment at week 12 are handled as if they discontinued at week 12 for the purpose of statistical analysis, whereas subjects in the other groups will maintain their randomized treatment until Week 24.\nThe atherogenic index has been identified to be a good predictor of cardiovascular disorders risks and is calculated as follows: […]", "key": {"[1]": {"settings": "increased from 25 mg b.i.d. to 50 mg b.i.d at 12 weeks, week 1"}, "[2]": {"settings": "increased from 25 mg b.i.d. to 50 mg b.i.d at 12 weeks, week 2"}, "[3]": {"settings": "increased from 25 mg b.i.d. to 50 mg b.i.d at 12 weeks, week 4"}, "[4]": {"settings": "increased from 25 mg b.i.d. to 50 mg b.i.d at 12 weeks, week 8"}, "[5]": {"settings": "increased from 25 mg b.i.d. to 50 mg b.i.d at 12 weeks, week 12"}, "[6]": {"settings": "increased from 25 mg b.i.d. to 50 mg b.i.d at 12 weeks, week 16"}, "[7]": {"settings": "increased from 25 mg b.i.d. to 50 mg b.i.d at 12 weeks, week 20"}, "[8]": {"settings": "increased from 25 mg b.i.d. to 50 mg b.i.d at 12 weeks, week 24"}, "[9]": {"settings": "increased from 50 mg q.d. to 100 mg q.d. at 12 weeks, week 1"}, "[10]": {"settings": "increased from 50 mg q.d. to 100 mg q.d. at 12 weeks, week 2"}, "[11]": {"settings": "increased from 50 mg q.d. to 100 mg q.d. at 12 weeks, week 4"}, "[12]": {"settings": "increased from 50 mg q.d. to 100 mg q.d. at 12 weeks, week 8"}, "[13]": {"settings": "increased from 50 mg q.d. to 100 mg q.d. at 12 weeks, week 12"}, "[14]": {"settings": "increased from 50 mg q.d. to 100 mg q.d. at 12 weeks, week 16"}, "[15]": {"settings": "increased from 50 mg q.d. to 100 mg q.d. at 12 weeks, week 20"}, "[16]": {"settings": "increased from 50 mg q.d. to 100 mg q.d. at 12 weeks, week 24"}, "[17]": {"settings": "placebo switched to 50 mg b.i.d at week 12, week 16"}, "[18]": {"settings": "placebo switched to 50 mg b.i.d at week 12, week 20"}, "[19]": {"settings": "placebo switched to 50 mg b.i.d at week 12, week 24"}, "[20]": {"settings": "placebo switched to 100 mg q.d. at week 12, week 16"}, "[21]": {"settings": "placebo switched to 100 mg q.d. at week 12, week 20"}, "[22]": {"settings": "placebo switched to 100 mg q.d. at week 12, week 24"}}}
{"smiles": "O=C(Nc1nc2cccc(-c3ccc(CN4CCS(=O)(=O)CC4)cc3)n2n1)C1CC1", "note": "[Compound 1, cyclopropanecarboxylic acid {5-[4-(1,1-dioxo-thiomorpholin-4-ylmethyl)-phenyl]-[1,2,4]triazolo[1,5-a]pyridin-2yl}-amide]", "values": [{"measurement": "Atherogenic index Mean percentage CFB - 12 weeks results", "setting": "week 2", "value": "−5", "unit": "%"}, {"measurement": "Atherogenic index Median CFB - 12 weeks results", "setting": "week 2", "value": -0.20, "unit": "mmol/L"}, {"measurement": "Atherogenic index Mean CFB", "setting": "week 4", "value": -0.30, "unit": "mmol/L"}, {"measurement": "Atherogenic index Mean percentage CFB - 12 weeks results", "setting": "week 4", "value": "−7", "unit": "%"}, {"measurement": "Atherogenic index Median CFB - 12 weeks results", "setting": "week 4", "value": -0.30, "unit": "mmol/L"}, {"measurement": "Atherogenic index Mean CFB", "setting": "week 8", "value": -0.18, "unit": "mmol/L"}, {"measurement": "Atherogenic index Mean percentage CFB - 12 weeks results", "setting": "week 8", "value": "−4", "unit": "%"}, {"measurement": "Atherogenic index Median CFB - 12 weeks results", "setting": "week 8", "value": -0.20, "unit": "mmol/L"}, {"measurement": "Atherogenic index Mean CFB", "setting": "week 12", "value": -0.24, "unit": "mmol/L"}, {"measurement": "Atherogenic index Mean percentage CFB - 12 weeks results", "setting": "week 12", "value": "−5", "unit": "%"}, {"measurement": "Atherogenic index Median CFB - 12 weeks results", "setting": "week 12", "value": -0.10, "unit": "mmol/L"}, {"measurement": "atherogenic index variation, decrease compared to pre-treatment baseline", "setting": "100 mg/bid dose", "value": 0.2, "unit": "fold"}, {"measurement": "atherogenic index variation, decrease compared to pre-treatment baseline", "setting": "200 mg q.d.", "value": 0.35, "unit": "fold"}, {"measurement": "Atherogenic index Mean CFB - 24 weeks results", "setting": "[1]", "value": 0.05, "unit": "mmol/L"}, {"measurement": "Atherogenic index Mean percentage CFB - 24 weeks results", "setting": "[1]", "value": 3.56, "unit": "%"}, {"measurement": "Atherogenic index Median CFB - 24 weeks results", "setting": "[1]", "value": -0.10, "unit": "mmol/L"}, {"measurement": "Atherogenic index Mean CFB - 24 weeks results", "setting": "[2]", "value": -0.11, "unit": "mmol/L"}, {"measurement": "Atherogenic index Mean percentage CFB - 24 weeks results", "setting": "[2]", "value": "−1.15", "unit": "%"}, {"measurement": "Atherogenic index Median CFB - 24 weeks results", "setting": "[2]", "value": -0.20, "unit": "mmol/L"}, {"measurement": "Atherogenic index Mean CFB - 24 weeks results", "setting": "[3]", "value": -0.15, "unit": "mmol/L"}, {"measurement": "Atherogenic index Mean percentage CFB - 24 weeks results", "setting": "[3]", "value": "−3.02", "unit": "%"}, {"measurement": "Atherogenic index Median CFB - 24 weeks results", "setting": "[3]", "value": -0.10, "unit": "mmol/L"}, {"measurement": "Atherogenic index Mean CFB - 24 weeks results", "setting": "[4]", "value": -0.17, "unit": "mmol/L"}, {"measurement": "Atherogenic index Mean percentage CFB - 24 weeks results", "setting": "[4]", "value": "−3.11", "unit": "%"}, {"measurement": "Atherogenic index Median CFB - 24 weeks results", "setting": "[4]", "value": -0.10, "unit": "mmol/L"}, {"measurement": "Atherogenic index Mean CFB - 24 weeks results", "setting": "[5]", "value": -0.19, "unit": "mmol/L"}, {"measurement": "Atherogenic index Mean percentage CFB - 24 weeks results", "setting": "[5]", "value": "−2.58", "unit": "%"}, {"measurement": "Atherogenic index Median CFB - 24 weeks results", "setting": "[5]", "value": -0.30, "unit": "mmol/L"}, {"measurement": "Atherogenic index Mean CFB - 24 weeks results", "setting": "[6]", "value": -0.10, "unit": "mmol/L"}, {"measurement": "Atherogenic index Mean percentage CFB - 24 weeks results", "setting": "[6]", "value": "−0.03", "unit": "%"}, {"measurement": "Atherogenic index Mean CFB - 24 weeks results", "setting": "[7]", "value": -0.26, "unit": "mmol/L"}, {"measurement": "Atherogenic index Mean percentage CFB - 24 weeks results", "setting": "[7]", "value": "−4.14", "unit": "%"}, {"measurement": "Atherogenic index Mean CFB - 24 weeks results", "setting": "[8]", "value": -0.24, "unit": "mmol/L"}, {"measurement": "Atherogenic index Mean percentage CFB - 24 weeks results", "setting": "[8]", "value": "−4.89", "unit": "%"}, {"measurement": "Atherogenic index Median CFB - 24 weeks results", "setting": "[8]", "value": -0.30, "unit": "mmol/L"}, {"measurement": "Atherogenic index Mean CFB - 24 weeks results", "setting": "[9]", "value": -0.03, "unit": "mmol/L"}, {"measurement": "Atherogenic index Mean percentage CFB - 24 weeks results", "setting": "[9]", "value": 0.53, "unit": "%"}, {"measurement": "Atherogenic index Median CFB - 24 weeks results", "setting": "[9]", "value": 0.00, "unit": "mmol/L"}, {"measurement": "Atherogenic index Mean CFB - 24 weeks results", "setting": "[10]", "value": -0.06, "unit": "mmol/L"}, {"measurement": "Atherogenic index Mean percentage CFB - 24 weeks results", "setting": "[10]", "value": "−0.94", "unit": "%"}, {"measurement": "Atherogenic index Median CFB - 24 weeks results", "setting": "[10]", "value": 0.10, "unit": "mmol/L"}, {"measurement": "Atherogenic index Mean CFB - 24 weeks results", "setting": "[11]", "value": -0.11, "unit": "mmol/L"}, {"measurement": "Atherogenic index Mean percentage CFB - 24 weeks results", "setting": "[11]", "value": "−1.77", "unit": "%"}, {"measurement": "Atherogenic index Median CFB - 24 weeks results", "setting": "[11]", "value": -0.10, "unit": "mmol/L"}, {"measurement": "Atherogenic index Mean CFB - 24 weeks results", "setting": "[12]", "value": -0.13, "unit": "mmol/L"}, {"measurement": "Atherogenic index Mean percentage CFB - 24 weeks results", "setting": "[12]", "value": "−1.35", "unit": "%"}, {"measurement": "Atherogenic index Median CFB - 24 weeks results", "setting": "[12]", "value": -0.10, "unit": "mmol/L"}, {"measurement": "Atherogenic index Mean CFB - 24 weeks results", "setting": "[13]", "value": 0.02, "unit": "mmol/L"}, {"measurement": "Atherogenic index Mean percentage CFB - 24 weeks results", "setting": "[13]", "value": 2.72, "unit": "%"}, {"measurement": "Atherogenic index Median CFB - 24 weeks results", "setting": "[13]", "value": 0.20, "unit": "mmol/L"}, {"measurement": "Atherogenic index Mean CFB - 24 weeks results", "setting": "[14]", "value": -0.05, "unit": "mmol/L"}, {"measurement": "Atherogenic index Mean percentage CFB - 24 weeks results", "setting": "[14]", "value": "−0.95", "unit": "%"}, {"measurement": "Atherogenic index Median CFB - 24 weeks results", "setting": "[14]", "value": -0.10, "unit": "mmol/L"}, {"measurement": "Atherogenic index Mean CFB - 24 weeks results", "setting": "[15]", "value": 0.02, "unit": "mmol/L"}, {"measurement": "Atherogenic index Mean percentage CFB - 24 weeks results", "setting": "[15]", "value": "−0.01", "unit": "%"}, {"measurement": "Atherogenic index Median CFB - 24 weeks results", "setting": "[15]", "value": 0.00, "unit": "mmol/L"}, {"measurement": "Atherogenic index Mean CFB - 24 weeks results", "setting": "[16]", "value": -0.12, "unit": "mmol/L"}, {"measurement": "Atherogenic index Mean percentage CFB - 24 weeks results", "setting": "[16]", "value": "−2.40", "unit": "%"}, {"measurement": "Atherogenic index Median CFB - 24 weeks results", "setting": "[16]", "value": 0.00, "unit": "mmol/L"}, {"measurement": "Atherogenic index Mean CFB - 24 weeks results", "setting": "[17]", "value": -0.47, "unit": "mmol/L"}, {"measurement": "Atherogenic index Mean percentage CFB - 24 weeks results", "setting": "[17]", "value": "−4.74", "unit": "%"}, {"measurement": "Atherogenic index Median CFB - 24 weeks results", "setting": "[17]", "value": -0.10, "unit": "mmol/L"}, {"measurement": "Atherogenic index Mean CFB - 24 weeks results", "setting": "[18]", "value": -0.39, "unit": "mmol/L"}, {"measurement": "Atherogenic index Mean percentage CFB - 24 weeks results", "setting": "[18]", "value": "−6.13", "unit": "%"}, {"measurement": "Atherogenic index Median CFB - 24 weeks results", "setting": "[18]", "value": -0.20, "unit": "mmol/L"}, {"measurement": "Atherogenic index Mean CFB - 24 weeks results", "setting": "[19]", "value": -0.45, "unit": "mmol/L"}, {"measurement": "Atherogenic index Mean percentage CFB - 24 weeks results", "setting": "[19]", "value": "−8.32", "unit": "%"}, {"measurement": "Atherogenic index Median CFB - 24 weeks results", "setting": "[19]", "value": -0.30, "unit": "mmol/L"}, {"measurement": "Atherogenic index Mean CFB - 24 weeks results", "setting": "[20]", "value": -0.07, "unit": "mmol/L"}, {"measurement": "Atherogenic index Mean percentage CFB - 24 weeks results", "setting": "[20]", "value": "−0.54", "unit": "%"}, {"measurement": "Atherogenic index Mean CFB - 24 weeks results", "setting": "[21]", "value": -0.12, "unit": "mmol/L"}, {"measurement": "Atherogenic index Mean percentage CFB - 24 weeks results", "setting": "[21]", "value": "−1.77", "unit": "%"}, {"measurement": "Atherogenic index Mean CFB - 24 weeks results", "setting": "[22]", "value": -0.12, "unit": "mmol/L"}, {"measurement": "Atherogenic index Mean percentage CFB - 24 weeks results", "setting": "[22]", "value": "−3.43", "unit": "%"}]}
